Experimental data: patent US20200237793A1, “IMMUNOMODULATORY OLIGOSACCHARIDES” (The Regents of the University of California, priority 2017, published 2020)

Assays:
RAW 264.7 cells = test: Pro-inflammatory cytokine mRNA expression (RT-PCR) in LPS-stimulated macrophages; type: cell-based, murine
Description: RAW246.7 cells were exposed to LPS either alone or in combination with either pooled human milk oligosaccharides (HMOs), or 3′-sialyllactose (3′SL) or 2′-fucosyllactose (2′FL). After 6 hours, IL-6 (A) and IL-1β (B) mRNA levels were measured by RT-PCR and are plotted as mean±standard deviation (n=8) relative the respective mRNA levels in cells that were exposed to LPS alone (**p<0.01; ***p<0.001). HMOs are a group of more than 150 different structurally distinct oligosaccharides and their composition follows a basic structural blueprint (C), containing five monosaccharide building blocks: glucose (dark gray circle), galactose (light gray circle), N-acetylglucosamine (dark gray square), fucose (gray triangle) and sialic acid (gray diamond). 3′SL contains lactose with sialic acid at the terminal end; 2′FL contains lactose with fucose at the terminal end.
HMOs were first isolated and purified from pooled human donor milk (pHMO) by using polymixin B affinity chromatography to remove any lipopolysaccharide (LPS) contamination. RAW 264.7 cells, a murine macrophage cell line, were then incubated with LPS (10 ng/mL) and pHMO (500 μg/mL) for 6 hours. RT-PCR was used to measure cytokine mRNA expression.
A multi-dimensional chromatography approach was used that separates pHMO first by charge and then by size. […]

[1] = tested on: bone marrow derived macrophages; test: Pro-inflammatory cytokine expression in primary mouse cells; type: cell-based
Text: (§1) Accordingly, the results with 3′SL translate to primary cells as well as to human macrophages.

[2] = tested on: THP-1 monocytic cell line; test: Pro-inflammatory cytokine expression in human monocytic cell line; type: cell-based; settings: human THP-1
Text: as §1

[3] = tested on: collagen antibody-induced arthritis (CAIA) model; test: Collagen antibody-induced arthritis (CAIA) model; type: in vivo, BALB/c mice
Description: Macrophages and the pro-inflammatory cytokines IL-6 and IL-1β are known to perform a major role in the development and progression of joint destruction in animal models and patients with RA. […] Next, it was asked whether or not the in vitro results translate to an in vivo model. 3′SL efficacy in a collagen antibody-induced arthritis (CAIA) model was tested in mice. In the CAIA model, arthritis is induced by systemic administration of a cocktail of monoclonal antibodies that target various regions of collagen type II, which is one of the major constituents of articular cartilage matrix proteins, followed by the administration of endotoxin (LPS) on day 3. The high uptake rate in the CAIA model and the capacity to synchronize the development of arthritis from the time of antibody injection, makes this a relatively straightforward model that is used to address questions of pathogenic mechanisms and to screen candidate therapeutic agents.
8-week old female BALB/c mice were injected with 1.5 mg of Arthrogen-CIA monoclonal antibody cocktail (Chondrex, Inc.). Three days later, the mice were injected with 25 μg of LPS. Beginning with the time of LPS administration and followed for the next 11 consecutive days, mice were orally gavaged thrice daily with either 3′SL (20 mg in saline) or saline alone as control. With the tester blinded to the study groups, arthritis in each limb was determined once per day. […] By adding together, the scores of all four limbs, the maximum score per mouse is 28. In addition, a caliper was placed across the ankle joint at the widest point to measure ankle thickness in both hind limbs daily. 14 days after antibody cocktail administration, mice were euthanized and hind paws collected and processed for histology. H&E—as well as Toluidine blue-stained sections were scored from 0 to 4 for inflammation, bone erosion and cartilage depletion based on a previously validated scoring system.

[4] = hind paws, day 14, score 0 to 4, oral 20 mg thrice daily
[5] = oral gavage 20 mg in saline thrice daily, from LPS administration, vs saline

IC50 (reducing IL-6 and IL-1β mRNA expression) (RAW 264.7 cells; dose-range finding studies): around 15 μg/mL
SMILES: CC(=O)N[C@H]1[C@H]([C@H](O)[C@H](O)CO)O[C@@](O[C@H]2[C@@H](O)[C@@H](CO)O[C@@H](O[C@H]3[C@H](O)[C@@H](O)C(O)O[C@@H]3CO)[C@@H]2O)(C(=O)O)C[C@@H]1O (stereo partly shown) [3′SL, 3′-sialyllactose]
IL-6 and IL-1β mRNA expression (RAW 264.7 cells; LPS-activated macrophages, individual oligosaccharides): most effective in reducing | pro-inflammatory cytokine expression [1]: reduced | pro-inflammatory cytokine expression [2]: reduced | adverse effects ([3]; 14-day study period, oral 20 mg thrice daily): No adverse effects were observed | histology score for cartilage damage [3, 4]: significantly lower | histology score for erosion [3, 4]: significantly lower | histology score for inflammation [3, 4]: significantly lower | Baseline-corrected ankle thickness (paw swelling) [3, 5]: significantly reduced | clinical index score 28 [3, 5]: significantly reduced
